In PMC8151276, “An Integrated Approach toward NanoBRET Tracers for Analysis of GPCR Ligand Engagement” (Molecules, 2021):
Each block holds one compound with its values, some of them ahead of it.

Experiments:
Type in all cases: binding
[1] = target: T1, MLNR (Homo sapiens, UniProt O43193); experiment: NanoBRET screen HiBiT-MLNR in HEK293
T1 construct: purchased Promega (in-house HiBiT-GPCR construct library, NanoBRET)
Method: (§1) Each tracer candidate was screened across the entire library of HiBiT-GPCR constructs using NanoBRET as the detection modality. As depicted in Figure 4A, the specificity of interactions was evaluated through decrease in BRET due to competitive displacement of a bound tracer by excess parental compound. Each tracer was analyzed for binding to each HiBiT-GPCR fusion in the absence and in the presence of competing parental compound. Briefly, HEK293 cells were transfected with HiBiT-GPCR constructs diluted into promoterless DNA to reduce expression and maximize translocation to the cell surface. Each tracer candidate was then screened at concentrations of 1 μM and 0.1 μM across cells expressing these fusions. Cells were treated for 1.5 h with tracer either alone or in the presence of 20 μM competing parental compound (i.e., control). BRET was measured upon addition of purified LgBiT and subsequent complementation with HiBiT genetically fused to a GPCR. The specificity of interactions was assessed through a decrease in BRET signal due to competitive displacement of the bound tracer. To further gauge the robustness of these interactions, the fold response over the control (i.e., BRETtracer/BRETcontrol) was calculated. We chose a 1.5-fold response, which translates to ≥7-fold signal over noise as the minimal threshold required to score an interaction as positive. […]. Below we highlight the screening results obtained for our exemplary fluorescent tracers based on Clozapine, Amitriptyline and AZD1283.
(§2) HiBiT-GPCR DNA constructs were diluted in 10 mM Tris pH 8 to a final concentration of 0.01 μg/μL, arrayed in 96-well plates and stored at −20 °C. For transfection, HEK293 cells were suspended in Opti-MEM (without phenol red) supplemented with 2% fetal bovine serum (Seradigm) and 100 units/mL penicillin–streptomycin (Gibco) at a final concentration of 220,000 cells/mL and dispensed into white 96-well plates at 90 μL/well. Subsequent transfections and screens were carried using an Agilent Bravo Automated Liquid Handling Platform. First, the 96-well HiBiT DNA arrays were diluted 25-fold in Opti-MEM (without serum or phenol red) to a final concentration of 0.0004 μg/μL and 20 μL of the diluted DNAs were transferred into new 96-well plates. Next, promoterless carrier DNA (1 μg/μL) was diluted 25-fold (0.04 μg/μL) and then dispensed into the diluted arrays at 20 μL/well. Following brief mixing, Viafect transfection reagent (Promega) diluted 16-fold into Opti-MEM was dispensed into the plates at 40 μL/well. After mixing by pipetting, plates were incubated for 10 min on the pipetting station deck. The DNA-transfection reagent complexes were then added to plates containing cells. To facilitate the screen, 10 μL of DNA-transfection reagent complexes were added in duplicates to the top 4 and bottom 4 rows, resulting in two identical 48-well arrays per plate. Plates with transfected cells were incubated for 18–20 h at 37 °C/5% CO2. A screen of each tracer across the entire library using two different concentrations requires duplicate plates of transfected cells. Depending on the number of tracers being screened, transfections can be scaled up using the same ratios. The next day, for each tracer, four 20× screening solutions in tracer dilution buffer (Promega) were prepared: two duplicates at final concentration of 20 μM and two duplicates at a final concentration of 2 μM. A competing unmodified compound was added to one of each duplicate at a final concentration of 400 μM. The four resulting solutions were diluted 4-fold in Opti-MEM without serum or phenol red to generate 5× solutions (5 µM and 0.5 µM tracer +/− 100 μM competing compound). To screen the library, a BioTek MultiFlo FX liquid dispenser was used to dispense 22.5 µL of tracer solution to the top 4 rows and 22.5 µL tracer + competing compound solution to the 4 bottom rows. Plates were briefly mixed on an orbital shaker and incubated for 1.5 h at room temperature. […]

[2] = target: T2, ADRA2B (Homo sapiens, UniProt P18089); experiment: NanoBRET screen HiBiT-ADRA2B in HEK293
T2 construct: purchased Promega (in-house HiBiT-GPCR construct library, NanoBRET)
T2 sequence (P18089 1-450): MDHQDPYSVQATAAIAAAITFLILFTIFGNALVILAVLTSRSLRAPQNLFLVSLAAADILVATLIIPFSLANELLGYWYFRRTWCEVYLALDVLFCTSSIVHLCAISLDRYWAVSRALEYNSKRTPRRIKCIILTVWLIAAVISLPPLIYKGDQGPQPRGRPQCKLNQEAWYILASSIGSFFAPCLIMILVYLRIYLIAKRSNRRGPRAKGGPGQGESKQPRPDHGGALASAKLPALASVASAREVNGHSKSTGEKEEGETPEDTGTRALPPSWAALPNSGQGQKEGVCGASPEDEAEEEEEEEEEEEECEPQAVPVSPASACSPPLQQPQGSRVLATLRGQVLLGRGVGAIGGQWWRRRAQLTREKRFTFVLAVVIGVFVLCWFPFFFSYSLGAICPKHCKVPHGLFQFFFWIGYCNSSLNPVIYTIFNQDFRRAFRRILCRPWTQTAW

[3] = target: T3, NPBWR2 (Homo sapiens, UniProt P48146); experiment: NanoBRET screen HiBiT-NPBWR2 in HEK293
T3 construct: purchased Promega (in-house HiBiT-GPCR construct library, NanoBRET)
T3 sequence (P48146 whole entry): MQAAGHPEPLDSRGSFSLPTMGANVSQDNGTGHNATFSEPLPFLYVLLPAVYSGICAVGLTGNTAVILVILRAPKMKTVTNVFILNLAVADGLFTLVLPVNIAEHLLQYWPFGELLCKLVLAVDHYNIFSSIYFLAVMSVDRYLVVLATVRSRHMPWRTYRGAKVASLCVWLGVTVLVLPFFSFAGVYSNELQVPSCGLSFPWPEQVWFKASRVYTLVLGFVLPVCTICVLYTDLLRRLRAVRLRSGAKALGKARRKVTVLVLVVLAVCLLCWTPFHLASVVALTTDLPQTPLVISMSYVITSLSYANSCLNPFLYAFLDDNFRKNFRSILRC
Method: as §1, §2

[4] = target: T4, GRM3 (Homo sapiens, UniProt Q14832); experiment: NanoBRET screen HiBiT-GRM3 in HEK293
T4 construct: purchased Promega (in-house HiBiT-GPCR construct library, NanoBRET)
T4 sequence (Q14832 23-879): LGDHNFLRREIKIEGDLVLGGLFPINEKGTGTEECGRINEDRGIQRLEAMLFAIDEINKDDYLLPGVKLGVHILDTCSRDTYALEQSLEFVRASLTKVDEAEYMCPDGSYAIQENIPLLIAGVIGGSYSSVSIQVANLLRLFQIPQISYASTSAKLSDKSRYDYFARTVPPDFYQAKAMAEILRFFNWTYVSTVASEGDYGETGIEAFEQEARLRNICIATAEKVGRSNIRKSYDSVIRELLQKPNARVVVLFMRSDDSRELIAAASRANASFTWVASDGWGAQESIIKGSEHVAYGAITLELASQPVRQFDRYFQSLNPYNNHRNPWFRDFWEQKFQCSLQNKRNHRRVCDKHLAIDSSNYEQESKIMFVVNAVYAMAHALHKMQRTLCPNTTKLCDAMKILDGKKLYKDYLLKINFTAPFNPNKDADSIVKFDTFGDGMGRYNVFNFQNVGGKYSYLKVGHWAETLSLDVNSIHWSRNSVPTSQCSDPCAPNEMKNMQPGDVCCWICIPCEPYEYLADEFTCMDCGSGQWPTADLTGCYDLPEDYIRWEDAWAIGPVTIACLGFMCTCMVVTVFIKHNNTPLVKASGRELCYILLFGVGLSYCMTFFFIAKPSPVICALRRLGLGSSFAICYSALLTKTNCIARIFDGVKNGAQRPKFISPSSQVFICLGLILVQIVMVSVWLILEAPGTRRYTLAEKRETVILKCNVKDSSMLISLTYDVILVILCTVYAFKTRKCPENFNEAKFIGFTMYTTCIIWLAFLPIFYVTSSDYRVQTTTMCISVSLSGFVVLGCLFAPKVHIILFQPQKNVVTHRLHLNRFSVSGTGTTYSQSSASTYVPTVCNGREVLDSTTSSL
Method: as §1, §2

[5] = target: T5, DRD5 (Homo sapiens, UniProt P21918); experiment: NanoBRET screen HiBiT-DRD5 in HEK293
T5 construct: purchased Promega (in-house HiBiT-GPCR construct library, NanoBRET)
T5 sequence (P21918 whole entry): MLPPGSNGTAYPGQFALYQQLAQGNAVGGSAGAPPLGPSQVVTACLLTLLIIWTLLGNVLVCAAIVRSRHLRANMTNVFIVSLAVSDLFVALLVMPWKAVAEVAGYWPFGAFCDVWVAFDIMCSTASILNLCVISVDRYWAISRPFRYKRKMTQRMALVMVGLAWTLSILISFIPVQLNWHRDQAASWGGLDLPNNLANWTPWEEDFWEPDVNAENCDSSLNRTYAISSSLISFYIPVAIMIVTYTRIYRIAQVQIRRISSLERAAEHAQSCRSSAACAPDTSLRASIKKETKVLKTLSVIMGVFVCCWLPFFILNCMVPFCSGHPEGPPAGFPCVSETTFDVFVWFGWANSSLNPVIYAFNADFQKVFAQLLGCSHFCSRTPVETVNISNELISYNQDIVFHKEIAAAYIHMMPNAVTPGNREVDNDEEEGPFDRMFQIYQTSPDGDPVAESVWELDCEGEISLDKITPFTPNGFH
Method: as §1, §2

[6] = target: T6, NPFFR2 (Homo sapiens, UniProt Q9Y5X5); experiment: NanoBRET screen HiBiT-NPFFR2 in HEK293
T6 construct: purchased Promega (in-house HiBiT-GPCR construct library, NanoBRET)
T6 sequence (Q9Y5X5 whole entry): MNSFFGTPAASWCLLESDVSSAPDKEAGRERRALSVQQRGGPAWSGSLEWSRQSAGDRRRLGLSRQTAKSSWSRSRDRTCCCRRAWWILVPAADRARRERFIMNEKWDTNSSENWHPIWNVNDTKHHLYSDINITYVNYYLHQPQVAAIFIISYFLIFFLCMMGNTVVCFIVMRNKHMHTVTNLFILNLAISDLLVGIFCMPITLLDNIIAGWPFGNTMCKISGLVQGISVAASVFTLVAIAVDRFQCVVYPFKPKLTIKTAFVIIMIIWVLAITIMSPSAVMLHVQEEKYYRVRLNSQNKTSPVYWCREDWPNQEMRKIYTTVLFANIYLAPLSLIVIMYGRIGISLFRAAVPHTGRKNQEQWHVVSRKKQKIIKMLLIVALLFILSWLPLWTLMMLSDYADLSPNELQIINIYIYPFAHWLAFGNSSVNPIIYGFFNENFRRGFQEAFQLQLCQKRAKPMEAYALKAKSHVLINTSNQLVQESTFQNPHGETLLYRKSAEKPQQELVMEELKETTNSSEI
Method: as §1, §2

[7] = target: T7, CCR6 (Homo sapiens, UniProt P51684); experiment: NanoBRET screen HiBiT-CCR6 in HEK293
T7 construct: purchased Promega (in-house HiBiT-GPCR construct library, NanoBRET)
T7 sequence (P51684 1-374): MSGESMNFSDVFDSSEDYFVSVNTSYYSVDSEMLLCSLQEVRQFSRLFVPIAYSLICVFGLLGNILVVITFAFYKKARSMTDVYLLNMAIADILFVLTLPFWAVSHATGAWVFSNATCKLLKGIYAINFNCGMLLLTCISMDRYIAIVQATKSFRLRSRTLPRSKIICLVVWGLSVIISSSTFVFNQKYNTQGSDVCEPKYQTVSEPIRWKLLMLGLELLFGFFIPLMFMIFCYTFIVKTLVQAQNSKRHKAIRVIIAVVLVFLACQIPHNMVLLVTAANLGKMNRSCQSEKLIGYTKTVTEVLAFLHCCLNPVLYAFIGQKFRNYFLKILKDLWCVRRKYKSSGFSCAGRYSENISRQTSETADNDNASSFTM
Method: as §1, §2

T1 sequence (O43193 whole entry): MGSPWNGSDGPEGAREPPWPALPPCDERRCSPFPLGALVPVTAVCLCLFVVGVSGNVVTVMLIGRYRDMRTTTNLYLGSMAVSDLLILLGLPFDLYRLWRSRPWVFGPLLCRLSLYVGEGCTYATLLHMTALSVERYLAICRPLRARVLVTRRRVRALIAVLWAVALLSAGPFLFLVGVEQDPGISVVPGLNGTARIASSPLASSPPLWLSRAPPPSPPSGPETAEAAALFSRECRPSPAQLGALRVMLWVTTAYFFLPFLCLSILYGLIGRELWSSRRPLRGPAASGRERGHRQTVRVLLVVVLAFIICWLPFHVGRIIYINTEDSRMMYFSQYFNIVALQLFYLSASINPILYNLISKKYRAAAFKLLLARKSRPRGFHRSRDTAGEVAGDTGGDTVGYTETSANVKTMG

NanoBRET Fold Response ([1]; MLNR, tracer 0.1μM): 0.97
NanoBRET Fold Response ([1]; MLNR, tracer 1μM): 1.00
NanoBRET Fold Response ([2]; ADRA2B, tracer 0.1μM): 1.12
NanoBRET Fold Response ([2]; ADRA2B, tracer 1μM): 1.11
NanoBRET Fold Response ([3]; NPBWR2, tracer 0.1μM): 1.04
NanoBRET Fold Response ([3]; NPBWR2, tracer 1μM): 0.92
NanoBRET Fold Response ([4]; GRM3, tracer 0.1μM): 1.01
NanoBRET Fold Response ([4]; GRM3, tracer 1μM): 1.03
NanoBRET Fold Response ([5]; DRD5, tracer 0.1μM): 1.02
NanoBRET Fold Response ([5]; DRD5, tracer 1μM): 1.01
NanoBRET Fold Response ([6]; NPFFR2, tracer 0.1μM): 0.98
NanoBRET Fold Response ([6]; NPFFR2, tracer 1μM): 1.02
NanoBRET Fold Response ([7]; CCR6, tracer 0.1μM): 0.96
NanoBRET Fold Response ([7]; CCR6, tracer 1μM): 1.00
SMILES: N#CN=C(NCCCOc1cccc(CN2CCCCC2)c1)NCCNC(=O)CCOCCOCCOCCOCCNC(=O)CCc1ccc2n1[B-](F)(F)[N+]1=C(c3ccc[nH]3)C=CC1=C2 [Aminopotentidine-2-NB590]

NanoBRET Fold Response ([1]; MLNR, 0.1μM): 1.06
NanoBRET Fold Response ([1]; MLNR, 1μM): 1.01
NanoBRET Fold Response ([2]; ADRA2B, 0.1μM): 1.09
NanoBRET Fold Response ([2]; ADRA2B, 1μM): 1.05
NanoBRET Fold Response ([3]; NPBWR2, 0.1μM): 0.95
NanoBRET Fold Response ([3]; NPBWR2, 1μM): 0.99
NanoBRET Fold Response ([4]; GRM3, 0.1μM): 0.97
NanoBRET Fold Response ([4]; GRM3, 1μM): 0.99
NanoBRET Fold Response ([5]; DRD5, 0.1μM): 1.02
NanoBRET Fold Response ([5]; DRD5, 1μM): 1.13
NanoBRET Fold Response ([6]; NPFFR2, 0.1μM): 1.01
NanoBRET Fold Response ([6]; NPFFR2, 1μM): 1.15
NanoBRET Fold Response ([7]; CCR6, 0.1μM): 1.06
NanoBRET Fold Response ([7]; CCR6, 1μM): 1.08
SMILES: CCOC(=O)c1cc(C#N)c(N2CCC(C(=O)NS(=O)(=O)Cc3ccccc3/C=C/C(=O)NCCNC(=O)CCc3ccc4n3[B-](F)(F)[N+]3=C(c5ccc[nH]5)C=CC3=C4)CC2)nc1C [AZD1283-1-NB590]

NanoBRET Fold Response ([1]; 0.1μM tracer): 1.00
NanoBRET Fold Response ([1]; 1μM tracer): 0.92
NanoBRET Fold Response ([2]; 0.1μM tracer): 1.18
NanoBRET Fold Response ([2]; 1μM tracer): 0.96
NanoBRET Fold Response ([3]; 0.1μM tracer): 0.91
NanoBRET Fold Response ([3]; 1μM tracer): 0.82
NanoBRET Fold Response ([4]; 0.1μM tracer): 0.95
NanoBRET Fold Response ([4]; 1μM tracer): 1.02
NanoBRET Fold Response ([5]; 0.1μM tracer): 0.97
NanoBRET Fold Response ([5]; 1μM tracer): 0.96
NanoBRET Fold Response ([6]; 0.1μM tracer): 1.16
NanoBRET Fold Response ([6]; 1μM tracer): 0.97
NanoBRET Fold Response ([7]; 0.1μM tracer): 0.86
NanoBRET Fold Response ([7]; 1μM tracer): 0.98
SMILES: COc1ccc2c(n1)c(CCNC(C)=O)cn2CCNC(=O)CCc1ccc2n1[B-](F)(F)[N+]1=C(c3ccc[nH]3)C=CC1=C2 [Azamelatonin-1-NB590]

NanoBRET Fold Response ([1]; MLNR, 0.1μM tracer): 0.94
NanoBRET Fold Response ([1]; MLNR, 1μM tracer): 1.08
NanoBRET Fold Response ([2]; ADRA2B, 0.1μM tracer): 7.79
NanoBRET Fold Response ([2]; ADRA2B, 1μM tracer): 7.79
NanoBRET Fold Response ([3]; NPBWR2, 0.1μM tracer): 1.04
NanoBRET Fold Response ([3]; NPBWR2, 1μM tracer): 0.89
NanoBRET Fold Response ([4]; GRM3, 0.1μM tracer): 0.97
NanoBRET Fold Response ([4]; GRM3, 1μM tracer): 0.96
NanoBRET Fold Response ([5]; DRD5, 0.1μM tracer): 2.41
NanoBRET Fold Response ([5]; DRD5, 1μM tracer): 2.86
NanoBRET Fold Response ([6]; NPFFR2, 0.1μM tracer): 1.00
NanoBRET Fold Response ([6]; NPFFR2, 1μM tracer): 0.97
NanoBRET Fold Response ([7]; CCR6, 0.1μM tracer): 1.05
NanoBRET Fold Response ([7]; CCR6, 1μM tracer): 0.97
SMILES: O=C(CCOCCOCCOCCOCCNC(=O)CCc1ccc2n1[B-](F)(F)[N+]1=C(c3ccc[nH]3)C=CC1=C2)NCCCN1CCN(C2=Nc3cc(Cl)ccc3Nc3ccccc32)CC1 [Clozapine-a-2-NB590]
